Reference: article PMC2615555 (Virology, 2008)

Key:
I-E^d = target: T1, I-E^d (Mus musculus, UniProt P01904+P01915); assay: biochemical; type: binding, BALB/c mouse
T1 sequence (P01904 26-255): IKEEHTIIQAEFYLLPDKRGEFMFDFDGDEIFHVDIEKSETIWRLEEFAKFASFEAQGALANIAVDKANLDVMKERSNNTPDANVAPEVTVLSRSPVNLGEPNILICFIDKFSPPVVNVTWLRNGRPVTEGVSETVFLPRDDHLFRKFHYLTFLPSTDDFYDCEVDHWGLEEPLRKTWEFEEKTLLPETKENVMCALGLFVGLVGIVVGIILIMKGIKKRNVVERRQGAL
T1 sequence (P01915 27-264 limits assumed): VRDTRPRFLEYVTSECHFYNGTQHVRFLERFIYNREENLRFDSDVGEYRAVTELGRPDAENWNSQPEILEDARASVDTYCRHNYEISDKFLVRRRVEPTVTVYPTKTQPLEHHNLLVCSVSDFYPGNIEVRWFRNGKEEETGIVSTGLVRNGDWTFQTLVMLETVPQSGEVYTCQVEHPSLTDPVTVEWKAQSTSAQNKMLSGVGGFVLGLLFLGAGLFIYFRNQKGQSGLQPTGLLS

I-A^d = target: T2, I-A^d (Mus musculus, UniProt P01921+P04228); assay: biochemical; type: binding, BALB/c mouse
T2 sequence (P04228 24-256): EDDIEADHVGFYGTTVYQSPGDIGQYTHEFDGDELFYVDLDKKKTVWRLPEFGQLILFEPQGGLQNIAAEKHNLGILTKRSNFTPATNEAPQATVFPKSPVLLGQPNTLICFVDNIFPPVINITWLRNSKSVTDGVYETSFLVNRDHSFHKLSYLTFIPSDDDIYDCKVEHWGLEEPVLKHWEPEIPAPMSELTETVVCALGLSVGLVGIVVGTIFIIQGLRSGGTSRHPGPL
T2 sequence (P01921 28-265): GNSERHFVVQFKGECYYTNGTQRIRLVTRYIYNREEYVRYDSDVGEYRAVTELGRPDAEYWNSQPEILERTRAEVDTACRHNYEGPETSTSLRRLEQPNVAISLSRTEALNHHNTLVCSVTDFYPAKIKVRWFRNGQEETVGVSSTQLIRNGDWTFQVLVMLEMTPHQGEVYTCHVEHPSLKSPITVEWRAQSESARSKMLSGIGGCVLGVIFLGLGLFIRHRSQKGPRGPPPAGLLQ

[1] = Binding Assay IC50, I-A^d (membrane 15mers)
[2] = Binding Assay IC50, I-A^d (envelope 15mers)

Row | Structure (SMILES) | IC50 (I-E^d) [µM] | IC50 (I-A^d; [1]) [µM] | other results
1 | CC[C@H](C)[C@H](NC(=O)[C@@H](NC(=O)[C@H](CC(C)C)NC(=O)[C@H](C)NC(=O)[C@@H](NC(=O)[C@@H](NC(=O)[C@H](C)NC(=O)[C@H](Cc1ccccc1)NC(=O)[C@@H](N)Cc1ccccc1)C(C)C)[C@@H](C)O)[C@@H](C)O)C(=O)N[C@@H](C)C(=O)N[C@@H](Cc1ccc(O)cc1)C(=O)N[C@@H](CC(C)C)C(=O)N[C@H](C(=O)NCC(=O)N[C@@H](CO)C(=O)O)C(C)C [M41–55] | > 45 | 6.21 | 
2 | CSCC[C@H](NC(=O)[C@H](CCCNC(=N)N)NC(=O)CNC(=O)[C@@H](NC(=O)[C@H](CCSC)NC(=O)[C@H](Cc1c[nH]c2ccccc12)NC(=O)[C@H](CCCCN)NC(=O)[C@@H](N)CCC(=O)O)[C@@H](C)O)C(=O)NCC(=O)N[C@@H](CCC(=O)O)C(=O)N[C@@H](CCCNC(=N)N)C(=O)N[C@@H](CCC(N)=O)C(=O)N[C@@H](CC(C)C)C(=O)N[C@@H](CCC(N)=O)C(=O)N[C@@H](CCCCN)C(=O)O [M17–31] | 20.7 | 20.4 | 
3 | CC(C)C[C@H](NC(=O)[C@H](C)NC(=O)[C@@H](NC(=O)[C@@H](NC(=O)[C@H](C)NC(=O)[C@H](Cc1ccccc1)NC(=O)[C@H](Cc1ccccc1)NC(=O)[C@@H]1CCCN1C(=O)[C@H](CC(N)=O)NC(=O)[C@H](CCCNC(=N)N)NC(=O)[C@@H](NC(=O)[C@H](Cc1ccccc1)NC(=O)[C@H](Cc1c[nH]c2ccccc12)NC(=O)[C@H](CCCNC(=N)N)NC(=O)[C@@H](N)CCC(=O)O)C(C)C)C(C)C)[C@@H](C)O)C(=O)O [M33–47] | 2.28 | 0.0073 | 
4 | CC[C@H](C)[C@H](NC(=O)[C@H](CCCCN)NC(=O)[C@H](CCC(N)=O)NC(=O)[C@H](CC(C)C)NC(=O)[C@H](CCC(N)=O)NC(=O)[C@H](CCCNC(=N)N)NC(=O)[C@H](CCC(=O)O)NC(=O)CNC(=O)[C@H](CCSC)NC(=O)[C@H](CCCNC(=N)N)NC(=O)CNC(=O)[C@@H](N)[C@@H](C)O)C(=O)N[C@@H](CCC(=O)O)C(=O)N[C@@H](CCCNC(=N)N)C(=O)N[C@@H](Cc1c[nH]c2ccccc12)C(=O)O [M21–35] | > 45 | 42.5 | 
5 | CC[C@H](C)[C@H](NC(=O)[C@H](CCCCN)NC(=O)[C@@H](N)[C@@H](C)O)C(=O)N[C@@H](CCC(N)=O)C(=O)N[C@@H](Cc1ccc(O)cc1)C(=O)N[C@H](C(=O)N[C@H](C(=O)N[C@@H](CCCNC(=N)N)C(=O)N[C@@H](C)C(=O)N[C@@H](CCC(N)=O)C(=O)N[C@@H](CC(C)C)C(=O)N[C@@H](Cc1c[nH]cn1)C(=O)N[C@H](C(=O)NCC(=O)N[C@@H](C)C(=O)O)C(C)C)[C@@H](C)CC)C(C)C [E133–147] |  |  | IC50 (I-A^d; [2]): < 1 µM
6 | CC[C@H](C)[C@H](NC(=O)[C@@H](NC(=O)[C@H](CC(C)C)NC(=O)[C@H](C)NC(=O)[C@@H](NC(=O)[C@@H](NC(=O)[C@H](C)NC(=O)[C@H](Cc1ccccc1)NC(=O)[C@H](Cc1ccccc1)NC(=O)[C@@H]1CCCN1C(=O)[C@H](CC(N)=O)NC(=O)[C@H](CCCNC(=N)N)NC(=O)[C@@H](N)C(C)C)C(C)C)[C@@H](C)O)[C@@H](C)O)C(=O)N[C@@H](C)C(=O)N[C@@H](Cc1ccc(O)cc1)C(=O)O [M37–51] | 1.92 | 0.04 | 
7 | CC[C@H](C)[C@H](N)C(=O)N[C@@H](C)C(=O)N[C@@H](Cc1ccc(O)cc1)C(=O)N[C@@H](CC(C)C)C(=O)N[C@H](C(=O)NCC(=O)N[C@@H](CO)C(=O)N[C@@H](CC(N)=O)C(=O)N[C@@H](CCSC)C(=O)N[C@H](C(=O)N[C@@H](CCC(N)=O)C(=O)N[C@@H](CCCNC(=N)N)C(=O)N[C@H](C(=O)N[C@H](C(=O)N[C@H](C(=O)O)[C@@H](C)CC)C(C)C)C(C)C)[C@@H](C)O)C(C)C [M49–63] | 29.7 | 0.383 | 
8 | CC[C@H](C)[C@H](NC(=O)[C@@H](NC(=O)[C@H](C)NC(=O)[C@H](C)NC(=O)[C@H](Cc1c[nH]cn1)NC(=O)[C@@H]1CCCN1C(=O)[C@@H]1CCCN1C(=O)[C@H](CCC(=O)O)NC(=O)[C@H](Cc1ccccc1)NC(=O)[C@@H](N)CCC(=O)O)[C@@H](C)O)C(=O)N[C@@H](CCCNC(=N)N)C(=O)N[C@H](C(=O)N[C@@H](CC(C)C)C(=O)N[C@@H](C)C(=O)N[C@@H](CC(C)C)C(=O)O)C(C)C [E233–247] |  |  | Binding Assay IC50, I-E^d (envelope 15mers) (I-E^d): high affinity; IC50 (I-A^d; [2]): < 1 µM
9 | CSCC[C@H](NC(=O)[C@H](CC(C)C)NC(=O)[C@H](CO)NC(=O)[C@H](C)NC(=O)[C@@H](NC(=O)[C@@H](NC(=O)[C@H](CCCNC(=N)N)NC(=O)[C@H](CCCCN)NC(=O)[C@@H](NC(=O)[C@H](CCCCN)NC(=O)[C@H](CCCNC(=N)N)NC(=O)[C@H](CC(C)C)NC(=O)[C@@H](NC(=O)[C@H](C)NC(=O)[C@@H](N)CC(C)C)C(C)C)C(C)C)C(C)C)C(C)C)C(=O)O [C77–91] |  |  | Binding Assay IC50, I-A^d (capsid 15mers) (I-A^d): high affinity
10 | CC[C@H](C)[C@H](NC(=O)[C@H](CCCCN)NC(=O)[C@H](CCC(N)=O)NC(=O)[C@@H](N)CC(C)C)C(=O)N[C@@H](CCC(=O)O)C(=O)N[C@@H](CCCNC(=N)N)C(=O)N[C@@H](Cc1c[nH]c2ccccc12)C(=O)N[C@@H](Cc1ccccc1)C(=O)N[C@H](C(=O)N[C@@H](CCCNC(=N)N)C(=O)N[C@@H](CC(N)=O)C(=O)N1CCC[C@H]1C(=O)N[C@@H](Cc1ccccc1)C(=O)N[C@@H](Cc1ccccc1)C(=O)N[C@@H](C)C(=O)O)C(C)C [M29–43] | 1.56 | 0.593 | 
11 | CC[C@H](C)[C@H](NC(=O)[C@H](CCCCN)NC(=O)[C@@H](NC(=O)[C@H](CCC(N)=O)NC(=O)[C@H](CC(=O)O)NC(=O)[C@@H](NC(=O)[C@@H](N)CCC(=O)O)C(C)C)[C@@H](C)O)C(=O)N[C@@H](CCC(N)=O)C(=O)N[C@@H](Cc1ccc(O)cc1)C(=O)N[C@H](C(=O)N[C@H](C(=O)N[C@@H](CCCNC(=N)N)C(=O)N[C@@H](C)C(=O)N[C@@H](CCC(N)=O)C(=O)N[C@@H](CC(C)C)C(=O)O)[C@@H](C)CC)C(C)C [E129–143] |  |  | IC50 (I-A^d; [2]): < 1 µM
12 | CC[C@H](C)[C@H](NC(=O)[C@@H](NC(=O)[C@@H](N)C(C)C)C(C)C)C(=O)N[C@@H](C)C(=O)N[C@@H](CC(C)C)C(=O)N[C@@H](CC(C)C)C(=O)N[C@H](C(=O)N[C@@H](CC(C)C)C(=O)N[C@@H](C)C(=O)N[C@H](C(=O)NCC(=O)N1CCC[C@H]1C(=O)N[C@@H](C)C(=O)N[C@@H](Cc1ccc(O)cc1)C(=O)N[C@@H](CO)C(=O)O)C(C)C)C(C)C [M61–75] | > 45 | 0.38 | 
13 | CC[C@H](C)[C@H](NC(=O)[C@@H](NC(=O)[C@@H](NC(=O)[C@H](CCCNC(=N)N)NC(=O)[C@H](CCC(N)=O)NC(=O)[C@@H](NC(=O)[C@@H](N)CCSC)[C@@H](C)O)C(C)C)C(C)C)C(=O)N[C@@H](C)C(=O)N[C@@H](CC(C)C)C(=O)N[C@@H](CC(C)C)C(=O)N[C@H](C(=O)N[C@@H](CC(C)C)C(=O)N[C@@H](C)C(=O)N[C@H](C(=O)NCC(=O)O)C(C)C)C(C)C [M57–71] | > 45 | 6.48 | 
14 | CC[C@H](C)[C@H](NC(=O)[C@@H](NC(=O)[C@@H](NC(=O)[C@H](CCCNC(=N)N)NC(=O)[C@H](CCC(N)=O)NC(=O)[C@@H](NC(=O)[C@H](CCSC)NC(=O)[C@H](CC(N)=O)NC(=O)[C@H](CO)NC(=O)CNC(=O)[C@@H](N)C(C)C)[C@@H](C)O)C(C)C)C(C)C)C(=O)N[C@@H](C)C(=O)N[C@@H](CC(C)C)C(=O)N[C@@H](CC(C)C)C(=O)N[C@H](C(=O)O)C(C)C [M53–67] | 32.3 | 0.03 | 
15 | CSCC[C@H](NC(=O)[C@H](CC(C)C)NC(=O)[C@H](CO)NC(=O)[C@H](C)NC(=O)[C@@H](NC(=O)[C@@H](NC(=O)[C@H](CCCNC(=N)N)NC(=O)[C@H](CCCCN)NC(=O)[C@@H](NC(=O)[C@H](CCCCN)NC(=O)[C@@H](N)CCCNC(=N)N)C(C)C)C(C)C)C(C)C)C(=O)N[C@@H](CCCNC(=N)N)C(=O)NCC(=O)N[C@@H](CC(C)C)C(=O)N[C@@H](CO)C(=O)O [C81–95] |  |  | Binding Assay IC50, I-A^d (capsid 15mers) (I-A^d): high affinity
16 | CC[C@H](C)[C@H](NC(=O)[C@@H](NC(=O)[C@H](C)NC(=O)[C@H](C)NC(=O)[C@H](Cc1c[nH]cn1)NC(=O)[C@@H]1CCCN1)[C@@H](C)O)C(=O)N[C@@H](CCCNC(=N)N)C(=O)N[C@H](C(=O)N[C@@H](CC(C)C)C(=O)N[C@@H](C)C(=O)N[C@@H](CC(C)C)C(=O)NCC(=O)N[C@@H](CC(N)=O)C(=O)N[C@@H](CCC(N)=O)C(=O)N[C@@H](CCC(=O)O)C(=O)O)C(C)C [E237–251] |  |  | IC50 (I-A^d; [2]): < 1 µM
17 | CC[C@H](C)[C@H](NC(=O)CN)C(=O)N[C@@H](CC(N)=O)C(=O)N[C@H](C(=O)N[C@@H](CCCNC(=N)N)C(=O)N[C@@H](CC(N)=O)C(=O)N[C@@H](CCSC)C(=O)N[C@H](C(=O)N[C@@H](CCSC)C(=O)N[C@@H](CO)C(=O)N[C@@H](CCSC)C(=O)N[C@@H](CO)C(=O)N[C@@H](CCSC)C(=O)N[C@H](C(=O)N[C@@H](CC(C)C)C(=O)O)[C@@H](C)CC)[C@@H](C)O)[C@@H](C)O [E465–479] |  |  | IC50 (I-A^d; [2]): < 1 µM
